This note sets out measurements from US11925650B2, “Antibacterial chemical compound, its manufacturing method and its use thereof” (National Taiwan University, priority 2022, dated 2024).

Assay [1] has as its system ROS levels in infected macrophages. As to the kind of experiment: ROS production in Salmonella-infected RAW264.7 cells (H2DCFDA). Format: cell-based. The following applies: 1 hour; SW14 at concentrations up to 8 μM. Here is the method:
FIG. 10. […] The viabilities of intracellular Salmonella in RAW264.7 cells treated with SW14 with/without the ROS scavengers N-acetyl-cysteine (NAC; 10 mM) or glutathione (GSH; 10 mM) are assessed using HCA. […] Salmonella-infected RAW264.7 cells are loaded with 25 μM H2DCFDA for 45 min followed by treatment with SW14 or PMA at various concentrations. […] S. Typhimurium ATCC 14028 is treated with H2O2 alone or in combination with SW14 (0.5 μM) in (C) LB or (D) LPM for 1 hour followed by evaluation by the CFU assay to determine bacterial viability.

The test system of assay [2] is Salmonella Typhimurium ATCC 14028. As to the kind of experiment: MIC of antibiotics, strain ATCC 14028. Format: cell-based. The following applies: for MIC: Salmonella enterica.
The subject of assay [3] is Salmonella Typhimurium NL08.10. The assay can be described thus: MIC of antibiotics, multidrug-resistant isolate NL08.10. Format: cell-based. As to conditions: Table 5; for MIC: Salmonella enterica, TYPHIMURIUM
For assay [4], the system named is Salmonella Typhimurium 0911R. As to the kind of experiment: MIC of antibiotics, multidrug-resistant isolate 0911R. Format: cell-based. The following applies: Table 5; for MIC: Salmonella enterica, TYPHIMURIUM
Assay [5] concerns Salmonella Typhimurium SA10. As to the kind of experiment: MIC of antibiotics, ciprofloxacin-resistant strain SA10. Format: cell-based. As to conditions: Table 6; for MIC: Salmonella enterica, TYPHIMURIUM
The subject of assay [6] is Salmonella Typhimurium SB10. The assay can be described thus: MIC of antibiotics, ciprofloxacin-resistant strain SB10. Format: cell-based. The following applies: Table 6; for MIC: Salmonella enterica, TYPHIMURIUM
Assay [7] relates to intracellular Salmonella in RAW264.7 cells. The assay can be described thus: Intracellular Salmonella viability with autophagy inhibitor 3-MA (HCA). Format: cell-based, S. typhimurium. As to conditions: 10 mM 3-MA. As for the experimental part: FIG. 7. Infected RAW264.7 cells treated with 10 mM of 3-MA for 1 h followed by 0.5 μM of SW14 or mock (DMSO) treatment for 24 hours.
Autophagy was originally characterized as a cellular response to stress, but has been considered to be a defense mechanism to combat host cell infection by intracellular Salmonella. Therefore, to evaluated the role of autophagy in SW14's anti-intracellular Salmonella activity, infected cells are treated with 3-MA, an autophagy inhibitor to block cellular autophagy then followed by treatment with SW14 for 24 h. […] Compared to mock-treated cells, the viability of intracellular Salmonella in cells treated with SW14 or the combination of 3-MA and SW14 were 45% and 36.8%, respectively.

Assay [8] shares this test system. The assay can be described thus: Intracellular Salmonella with cefixime or ciprofloxacin alone or combined with SW14 (HCA). Format: cell-based. The following applies: 24 hours, alone or combined with 0.5 μM SW14. As for the experimental part:
FIG. 4. Salmonella-infected RAW264.7 cells treated with (A) 0.25, 0.5, 1, 2, and 4 mg/L of cefixime (CFM) and (B) 0.03, 0.06, 0.125, 0.25, and 0.5 mg/L of ciprofloxacin (CIP) alone or in combination with 0.5 μM SW14. After 24 hours, the relative numbers of intracellular bacteria were determined using HCA and the results are expressed as relative fluorescence units (RFU).

For another assay, the system named is S. Typhimurium 14028. The assay can be described thus: Anti-intracellular Salmonella activity in infected RAW264.7 cells (HCA). Format: cell-based, Salmonella Typhimurium. The following applies: for Selectivity ratio (IC50/EC50): IC50 RAW264.7 / EC50 S. Typhimurium 14028; for EC50: Salmonella enterica, TYPHIMURIUM
In the next assay the test system is RAW264.7. As to the kind of experiment: Cytotoxicity in RAW264.7 cells (HCA, MTT cell viability assay). Format: cell-based. The following applies: Mus musculus. Background: Tetrazolium assays rely on reduction of a dye to a coloured formazan, in cell work by metabolically active cells.
Where [9] appears, read: Table 5, read-out: MIC ATCC 14028.
Setting [10] is: CAMH medium, read-out: MIC S. Typhimurium ATCC 14028, CAMH.
The mark [11] stands for this setting: LB medium, read-out: MIC S. Typhimurium ATCC 14028, LB.
Where [12] appears, read: acidic LPM medium, read-out: MIC S. Typhimurium ATCC 14028, LPM.
Setting [13] is: Table 6, read-out: MIC ATCC 14028.
The mark [14] stands for this setting: intracellular Salmonella in infected RAW264.7 cells, read-out: EC50 (μM) S. Typhimurium 14028.
Setting [15] is: cytotoxicity, RAW264.7 cells, read-out: IC50 (μM) RAW264.7.
Where [16] appears, read: RAW264.7, read-out: EC50 (μM) S. Typhimurium 14028, intracellular Salmonella in infected RAW264.7 cells.
The mark [17] stands for this setting: RAW264.7, read-out: IC50 (μM) RAW264.7.

One may read the MIC as the least concentration at which growth counts as inhibited. One may read the EC50 as the concentration needed to bring the measured effect to its halfway point. For orientation: IC50 means the midpoint of a concentration-inhibition curve.

Like-named read-outs stand apart in the source and are kept apart here.

Turning to `CCCCCCCCCCCCCC(=O)O[C@@H]1[C@@H](C)[C@@]2(O)[C@@H](C=C(CO)C[C@]3(O)C(=O)C(C)=C[C@@H]23)[C@@H]2C(C)(C)[C@]12OC(C)=O` [PMA, reference compound], the “ROS levels (H2DCFDA signal) in infected macrophages” value in assay [1] was “significantly elevated ROS levels”.
Turning to `[H]/N=C(/N)N[C@H]1[C@H](O)[C@@H](O)[C@H](O[C@@H]2O[C@@H](C)[C@](O)(C=O)[C@H]2O[C@@H]2O[C@@H](CO)[C@H](O)[C@@H](O)[C@@H]2NC)[C@@H](N/C(N)=N\[H])[C@@H]1O` [Streptomycin], the figures for the MIC in [2] (setting [9]), in assay [3] and in assay [4] were 32 µg/mL, above 64 µg/mL and above 64 µg/mL, respectively.
Regarding `CO[C@H]1/C=C/O[C@@]2(C)Oc3c(C)c(O)c4c(O)c(c(/C=N/N5CCN(C)CC5)c(O)c4c3C2=O)NC(=O)/C(C)=C\C=C\[C@H](C)[C@H](O)[C@@H](C)[C@@H](O)[C@@H](C)[C@H](OC(C)=O)[C@@H]1C` [Rifampin], the MIC in assay [2] (setting [10]) was 16 µg/mL; in assay [2] (setting [11]), 16 µg/mL; in [2] (setting [12]), 4 µg/mL.
With `CC1COc2c(N3CCN(C)CC3)c(F)cc3c(=O)c(C(=O)O)cn1c23` (stereo not drawn) [Ofloxacin], the minimum inhibitory concentration (MIC) in assay [2] (setting [13]) is below 0.125 µg/mL; in [5], 8 µg/mL; in assay [6], 8 µg/mL.
On to `CC1(C)S[C@@H]2[C@H](NC(=O)[C@H](N)c3ccccc3)C(=O)N2[C@H]1C(=O)O` [Ampicillin], for which the minimum inhibitory concentration (MIC) in [2] (setting [10]) is 4 µg/mL; in assay [2] (setting [11]) it was 4 µg/mL; in assay [2] (setting [9]), 16 µg/mL; in assay [2] (setting [12]) it was 1 µg/mL; in assay [3] it was above 64 µg/mL; in assay [4] it was above 64 µg/mL.
Consider Gentamycin, for which the “MIC ATCC 14028” value in assay [2] (Table 5) and in assay [2] (Table 6) was 2 µg/mL each time. In [3], the “MIC NL08.10” value was determined as 2 µg/mL. In addition, the “MIC 0911R” value in assay [4] turned out to be 2 µg/mL. In [5], the “MIC SA10” value came to 0.5 µg/mL. The “MIC SB10” value in [6] was 1 µg/mL.
Take `Cn1cnc(=N)c2[nH]cnc21` [3-MA, reference compound]: the “relative number of intracellular bacteria in 3-MA-treated cells” value in [7] is “increased significantly”.
Regarding `O=C(O)c1cn(C2CC2)c2cc(N3CCNCC3)c(F)cc2c1=O` [Ciprofloxacin, ciprofloxacin], the figures for the minimal inhibitory concentration (MIC) in [2] (setting [13]), in [5] and in assay [6] were below 0.125 µg/mL, 4 µg/mL and 4 µg/mL, respectively. Moreover, the “survival of intracellular Salmonella in macrophages, antibiotic treatment” value in assay [8] is listed as “inhibited the survival of intracellular Salmonella in macrophages in a dose-dependent manner”.
Regarding `CN(C)[C@@H]1C(O)=C(C(N)=O)C(=O)[C@@]2(O)C(O)=C3C(=O)c4c(O)cccc4[C@@](C)(O)[C@H]3C[C@@H]12` [Tetracycline], the MIC in [2] (setting [9]) is 8 µg/mL; in assay [3], above 64 µg/mL; in [4], above 64 µg/mL.
For the compound `CN[C@H](CC(C)C)C(=O)N[C@H]1C(=O)N[C@@H](CC(N)=O)C(=O)N[C@H]2C(=O)N[C@H]3C(=O)N[C@H](C(=O)N[C@H](C(=O)O)c4cc(O)cc(O)c4-c4cc3ccc4O)[C@H](O)c3ccc(c(Cl)c3)Oc3cc2cc(c3O[C@@H]2O[C@H](CO)[C@@H](O)[C@H](O)[C@H]2O[C@H]2C[C@](C)(N)[C@H](O)[C@H](C)O2)Oc2ccc(cc2Cl)[C@H]1O` [Vancomycin], the MIC in assay [2] (setting [10]) was determined as 2050 µg/mL; in assay [2] (setting [11]) it was 512 µg/mL; in assay [2] (setting [12]), 128 µg/mL.
As to `O=C(N[C@H](CO)[C@H](O)c1ccc([N+](=O)[O-])cc1)C(Cl)Cl` [Chloramphenicol], the minimum inhibitory concentration (MIC) came out at 16 µg/mL in assay [2] (setting [9]), 32 µg/mL in [3] and 32 µg/mL in assay [4].
Consider `Clc1ccc2c(c1)C(NCCN1CCCCC1)=Nc1cccnc1N2` [SW21, 8-chloro-N-(2-(piperidin-1-yl)ethyl)-11H-benzo[e]pyrido[3,2-b][1,4]diazepin-6-amine], for which, in the assay on S. Typhimurium 14028, the “Selectivity ratio (IC50/EC50)” value was found to be 11.0. In addition, the 50% effective concentration (EC50) in the assay on S. Typhimurium 14028 (setting [14]) was found to be 5.8 µM. The half-inhibitory concentration (IC50) with RAW264.7 (setting [15]) turned out to be 63.6 µM.
In the case of `c1ccc2c(c1)N=C(NCCN1CCCCC1)c1ccccc1N2` [SW35, N-(2-(piperidin-1-yl)ethyl)-5H-dibenzo[b,e][1,4]diazepin-11-amine], in the assay on S. Typhimurium 14028, the “Selectivity ratio (IC50/EC50)” value amounted to 29.3. Moreover, in the assay with S. Typhimurium 14028 (setting [16]), the half-maximal effective concentration (EC50) is 3.8 µM. Besides, the IC50 in the assay on RAW264.7 (setting [17]) came out at 111 µM.
In the case of `Clc1ccc2c(c1)C(NCCc1ccncc1)=Nc1ccccc1O2` [SW16, 2-chloro-N-(2-(pyridin-4-yl)ethyl)dibenzo[b,f][1,4]oxazepin-11-amine], the “Selectivity ratio (IC50/EC50)” value in the assay with S. Typhimurium 14028 was determined as 2.8. Moreover, the concentration for a half-maximal effect (EC50) in the assay on S. Typhimurium 14028 (setting [16]) came to 18.5 µM. The IC50 in the assay on RAW264.7 (setting [17]) stood at 51.1 µM.
Regarding `Clc1ccc2c(c1)C(NCCCN1CCCCC1)=Nc1cccnc1N2` [SW32, 8-chloro-N-(3-(piperidin-1-yl)propyl)-11H-benzo[e]pyrido[3,2-b][1,4]diazepin-6-amine], in the assay with S. Typhimurium 14028, the “Selectivity ratio (IC50/EC50)” value is reported as 16.4. The EC50 in the assay on S. Typhimurium 14028 (setting [14]) amounted to 6.4 µM. The half-maximal inhibitory concentration (IC50) in the assay with RAW264.7 (setting [15]) is 105 µM.
